Test results: patent US20020103380A1, “Thiourea and urea liquid-phase combinatorial libraries: synthesis and apoptosis induction” (Parker Hughes Institute, priority 1999, published 2002)
≈ marks a conversion by molar mass, not a printed value. Values belong to the compound of their own block, whether it stands above or below them.

Assays:
human tumor cell lines = experiment: MTT assays, cell line not given; type: cell-based; conditions: cell line not stated; for relative cytotoxic / biological activity: MTT; for IC50: Homo sapiens
Description: (§1) The cytotoxicity assay of various CL2 compounds against human tumor cell lines was performed using the MTT (3-[4,5-dimethylthiazol-2-yl]-2,5-diphenyl tetrazolium bromide) assay (Boehringer Mannheim Corp., Indianapolis, Ind.). Briefly, exponentially growing tumor cells were seeded into a 96-well plate at a density of 2.5×10^4 cells/well and incubated for 36 hours at 37° C. prior to compound exposure. On the day of treatment, culture medium was carefully aspirated from the wells and replaced with fresh medium containing the CL2 compounds at concentrations ranging from 0.0 to 100 μM. Triplicate wells were used for each treatment.
(§2) Human cell lines were obtained from American Type Culture Collection (Rockville, Md.) and maintained as a continuous cell line in Dulbecco's modified Eagles' medium supplemented with 10% fetal bovine serum and antibiotics. Cells used in this study include human leukemia cells (NALM-6 and MOLT-3).
(§3) The cells were incubated with the various compounds for 24-36 hours at 37° C. in a humidified 5% CO2 atmosphere. To each well, 10 μl of MTT (0.5 mg/ml final concentration) was added and the plates were incubated at 37° C. for 4 hours to allow MTT to form formazan crystals by reacting with metabolically active cells. The formazan crystals were solubilized overnight at 37° C. in a solution containing 10% SDS in 0.01 M HCl. The absorbance of each well was measured in a microplate reader (Labsystems) at 540 nm and a reference wavelength of 690 nm. To translate the OD540 values into the number of live cells in each well, the OD540 values were compared to those on standard OD540-versus-cell number curves generated for each cell line. The percent survival was calculated using the formula:
(§4) % Survival=live cell number [test]/live cell number [control]×100
(§5) The IC50 values were calculated by non-linear regression analysis.

[1] = system: NALM-6 human leukemia cells; experiment: MTT cytotoxicity assay, NALM-6; type: cell-based; conditions: for ED50 Nalm6: Table 4, individual lead compounds; for relative cytotoxic activity: ranking among the 21 individual compounds, Nalm6, MTT
Description: Stage (4): deconvolution and re-synthesis were guided by an iterative screening procedure during which the cytotoxic anti-cancer activities of the individual sub-libraries were measured against the human leukemia cell lines NALM-6 and MOLT-3 using MTT assays. […] However, this is not always true when even-splitting was not possible or some special consideration. […] Another special example is the small 10-member sublibrary CL2.
as §1, §2, §3, §4, §5

[2] = compound stability remark in Table 1; type: physicochemical

Structure (SMILES): Fc1ccc(CCNC(=S)NCCc2ccc(Cl)cc2Cl)cc1 [CL10b]
relative cytotoxic / biological activity (human tumor cell lines): most active

Structure (SMILES): S=C(NC(c1ccccc1)c1ccccc1)NC(c1ccccc1)c1ccccc1 [Compound L34A3A3]
ED50 Nalm6 [1]: >100 µg/mL

Structure (SMILES): COc1ccc(OC)c(CCNC(=S)NCCc2ccccc2OC)c1 [CL12a]
relative cytotoxic / biological activity (human tumor cell lines): most active

IC50 (human tumor cell lines): < 10 µg/mL
Structure (SMILES): S=C(NC(Cc1ccccc1)c1ccccc1)NC(Cc1ccccc1)c1ccccc1 (stereo not drawn) [Compound L34A5A5, 1,3-Bis(1,2-diphenylethyl)-2-thiourea]
ED50 Nalm6 [1]: <10 µg/mL | relative cytotoxic activity [1]: most active

IC50 (human tumor cell lines): < 10 µg/mL
Structure (SMILES): S=C(NC(Cc1ccccc1)c1ccccc1)NC(c1ccccc1)c1ccccc1 (stereo not drawn) [Compound L34A3A5, 1-(1,2-Diphenylethyl)-3-(diphenylmethyl)-2-thiourea]
ED50 Nalm6 [1]: <10 µg/mL | relative cytotoxic activity [1]: most active

Structure (SMILES): S=C(NC(c1ccccc1)(c1ccccc1)c1ccccc1)NC(c1ccccc1)(c1ccccc1)c1ccccc1 [Compound L34A4A4]
ED50 Nalm6 [1]: 30 µg/mL (≈ 53.5 µM)

Structure (SMILES): CC(NC(=S)NC(c1ccccc1)(c1ccccc1)c1ccccc1)c1ccccc1 (stereo not drawn) [Compound L34A2A4]
ED50 Nalm6 [1]: 50 µg/mL (≈ 118 µM)

Structure (SMILES): CC(NC(=S)NC(C)c1ccccc1)c1ccccc1 (stereo not drawn) [Compound L34A2A2]
ED50 Nalm6 [1]: 50 µg/mL (≈ 176 µM)

Structure (SMILES): COc1ccccc1CCNC(=S)NCCc1ccc(Cl)cc1Cl [CL12b]
relative cytotoxic / biological activity (human tumor cell lines): most active

stability (remark in place of IC50) [2]: unstable compound
Structure (SMILES): Fc1ccc(CCNC(=S)NCCc2ccc(F)cc2)cc1 [CL2j]

Structure (SMILES): CC(NC(=S)NC(c1ccccc1)c1ccccc1)c1ccccc1 (stereo not drawn) [Compound L34A2A3]
ED50 Nalm6 [1]: 50 µg/mL (≈ 144 µM)
